Results: PMC3409115, “Diverse Inhibitor Chemotypes Targeting Trypanosoma cruzi CYP51” (PLoS Neglected Tropical Diseases, 2012)
Like-named read-outs stand apart in the source and are kept apart here.

How the values were obtained:
[1] = test system: T. cruzi-infected skeletal myoblasts (intracellular amastigotes); assay: Hit cross-validation in T. cruzi-infected mammalian cells (image-based assay); assay type: cell-based, Trypanosoma cruzi; settings: Trypanosoma cruzi, Myoblast, 72 h, read-out: EC50 against T. cruzi parasites in HTS assay used to rank order the hits
Protocol: Bovine embryo skeletal muscle cells or mouse C2C12 myoblasts (ATCC#CRL-1772) used in the cross-validation assay, were cultivated respectively in RPMI 1640 medium supplemented with 5% horse serum and Dulbecco's Modified Eagle's Medium H-21 containing 4.5 g/l glucose (DMEM H-21) (Cell Culture Facility, UCSF), supplemented with 5% fetal bovine serum (FBS) (Sigma Chemical Co., St. Louis, MO, USA), 25 mM HEPES, 2 mM L-glutamine, 100 U/ml penicillin, 100 µg/ml streptomycin. T. cruzi CAI-72 trypomastigotes were obtained from supernatant of infected cultures 4 to 7 days post-infection. Cultures were maintained at 37°C in an atmosphere of 5% CO2. To harvest parasites, the supernatant of infected cultures containing released trypomastigotes was collected and centrifuged at 600 rpm for 5 min to remove cell debris; the pellet was then discarded and the trypomastigotes remaining in the media were concentrated by spinning the culture tubes at 3300 rpm for 15 minutes. The parasite pellet was re-suspended in 2–5 ml of fresh media. Trypomastigote concentration was determined using a Neubauer hemocytometer.
(§1) Compound cross-validation in T. cruzi infected skeletal myoblasts (bovine embryo skeletal muscle or C2C12 lineage) was performed according to the protocol adapted from Engel and co-authors. Compounds stored as 10 mM stocks in DMSO were freshly diluted immediately prior to use. […] To prepare plates for the assay, skeletal myoblasts cultured in […] flasks were washed once with phosphate buffered saline (PBS) and then incubated with 0.25% trypsin in PBS for 1–3 minutes for detachment. The trypsin solution was removed and myoblasts were released from the flask bottom. Fresh medium was added and cell concentration was determined using a Neubauer hemocytometer. Myoblasts in 50 µl of culture medium were transferred to the clear-bottom wells of black 96-well plates (Greiner Bio-One, #655090) at a density of 1500 cells/well and infected with 50 µl trypomastigote culture at 7500 parasites/well (1∶5 ratio). The cells were allowed to adhere and spread for 24 h in the incubator before the media was removed and 100 µl of fresh medium containing 0, 0.04, 0.12, 0.37, 1.10, 3.30 or 10 µM of test compound was added to each well, followed by 72 h incubation at 37°C in an atmosphere of 5% CO2. Posaconazole was used as a positive control at the same concentrations as the test compounds. The cells were then fixed by adding 100 µl/well of 8% formaldehyde in PBS, resulting in a 4% working concentration of formaldehyde. To stain the nucleus of the host cell and the nucleus and kinetoplast of parasites, cell membranes were first permeabilized by washing once with 100 µl of 0.1% Triton X-100 in PBS, then treated for 1 h with 0.2 µg/ml of the fluorescent DNA dye, 4,6-diamidino-2-phenylindole (DAPI), followed by one wash with PBS. The fixed plates were kept at 4°C and protected from light until images were acquired.
(§2) Plates were allowed to equilibrate to room temperature and images were acquired by the IN Cell Analyzer 2000 (GE Healthcare) with a 20× objective, 5 fields per well, with 350/50 nm and 460/40 nm fluorescent excitation and emission filters. In the absence of drug cytotoxicity, at least 800 cells were imaged and counted per well. The images were processed and analyzed by IN Cell Analyzer Developer 1.6 software. The size parameters used to segment host and parasite organelles were 125 µm^2 for host nucleus, and 1–2 µm^2 for parasite nucleus/kinetoplast. Since DAPI also strongly stains host heterochromatin regions that display as shapes resembling parasites ( Figure 3 ), particles co-localized to host nuclei were excluded from quantification, while parasite aggregates near the host nucleus were counted as infected cells.

T. cruzi CYP51 = biological target: T1, T. cruzi CYP51 (Trypanosoma cruzi, UniProt Q7Z1V1); assay: HTS spectral-mode binding screen, type II difference spectra scored 0-5
T1 construct: had the first 21 residues upstream of K22 replaced with the fragment MAKKKKK; His6 (C); made in house
T1 sequence (Q7Z1V1 15-481, looked up, natural form): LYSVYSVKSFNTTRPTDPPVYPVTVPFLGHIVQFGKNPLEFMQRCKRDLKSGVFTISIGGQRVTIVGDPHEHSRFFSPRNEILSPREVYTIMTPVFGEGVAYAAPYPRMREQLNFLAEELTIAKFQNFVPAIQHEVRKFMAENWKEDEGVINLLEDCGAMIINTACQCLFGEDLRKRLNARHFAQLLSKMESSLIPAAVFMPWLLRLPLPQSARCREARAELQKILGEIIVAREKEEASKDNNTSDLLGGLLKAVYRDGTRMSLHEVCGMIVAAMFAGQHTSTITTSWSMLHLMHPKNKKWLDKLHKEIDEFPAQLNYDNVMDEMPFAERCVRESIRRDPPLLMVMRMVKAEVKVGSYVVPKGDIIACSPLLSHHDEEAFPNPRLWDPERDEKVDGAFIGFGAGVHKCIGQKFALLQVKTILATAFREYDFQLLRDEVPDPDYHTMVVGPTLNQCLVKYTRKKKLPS

[2] = test system: host cell (skeletal myoblasts, bovine embryo skeletal muscle or C2C12); assay: Host cell toxicity in the cross-validation assay; assay type: cell-based; settings: host cells in cross-validation assay, up to 10 µM
Protocol: as §1
as §2, with “cells. Numbers of host cells and intracellular amastigotes were determined based on host cell and parasite nucleus and parasite kinetoplast quantification, providing a measure of growth inhibition during the first 72 h of post-infection treatment compared to untreated controls.” for “cells.”
^aToxicity was assessed as the highest percentage of host cell growth inhibition caused by compound treatment. Scores are assigned as 1-<20%; 2-21-30%; 3- 31-40%; 4-41-50% and 5->50% growth inhibition.

[3] = spectral mode, four serial dilutions 2 µM to 12.5 µM, 2 µM CYP51
[4] = T. cruzi-infected myoblasts, 72 h treatment

| SMILES | HTS binding score (T. cruzi CYP51; [3]) | further results |
| --- | --- | --- |
| COc1cccc(/C=C/c2ccncc2)c1OC [Compound 24] | 2 | EC50 [1]: 2.98 µM |
| CC(C)/C=C1\CC/C(=C\c2ccncc2)C1=O [Compound 35] | – | EC50 [1]: 7.15 µM; Toxicity score (highest percentage of host cell growth inhibition) [2]: 1 (1-<20%) |
| Cc1ccc(C)c(CN2CCCCC2c2cccnc2)c1 (stereo not drawn) [Compound 48] | 4 | EC50 [1]: 8.24 µM |
| Oc1cccc(Nc2nc(-c3ccncc3)cs2)c1 [Compound 37] | – | EC50 [1]: 7.33 µM; Toxicity score (highest percentage of host cell growth inhibition) [2]: 4 (4-41-50%) |
| O=C(NCc1cccnc1)/C(=C\c1cccc(Oc2ccccc2)c1)S(=O)(=O)c1ccccc1 [Compound 52] | – | EC50 [1]: 8.99 µM; Toxicity score (highest percentage of host cell growth inhibition) [2]: 5 (5->50% growth inhibition) |
| CC1=Nc2ncnn2C(c2cccnc2)/C1=C(\O)OC1CCCCC1 (stereo not drawn) [Compound 55] | – | EC50 [1]: 9.54 µM; Toxicity score (highest percentage of host cell growth inhibition) [2]: 1 (1-<20%) |
| O=S(=O)(NCc1csc(-c2cccnc2)n1)c1ccc(Br)cc1 [Compound 32] | – | EC50 [1]: 6.5 µM; Toxicity score (highest percentage of host cell growth inhibition) [2]: 2 (2-21-30%) |
| O=C(Cc1coc2ccc3ccccc3c12)NCc1cccnc1 [Compound 44] | – | EC50 [1]: 7.93 µM; Toxicity score (highest percentage of host cell growth inhibition) [2]: 2 (2-21-30%) |
| O=C(NCCc1ccncc1)Nc1ccc(Cl)c(Cl)c1 [Compound 20] | – | EC50 [1]: 2.55 µM; Toxicity score (highest percentage of host cell growth inhibition) [2]: 1 (1-<20%) |
| Cc1ccc(C)c(OCCCCn2ccnc2)c1 [Compound 17] | 4 | EC50 [1, 4]: 2.36 µM |
| CCCC/N=C(\S)N1CCn2cccc2C1c1cccnc1 (stereo not drawn) [Compound 30] | – | EC50 [1]: 6.33 µM |
| O=C(Cn1ccnc1)c1ccc(Cl)cc1Cl [Compound 26] | 2 | EC50 [1]: 4.53 µM |
| O=C(c1ccncc1)N(c1ccc2oc3c(c2c1)CCCC3)S(=O)(=O)c1cccs1 [Compound 167] | 4 | – |
| CCO/C(O)=C1/C(C)=NC2=C(C(=O)CC(c3ccccc3)C2)C1c1cccnc1 (stereo not drawn) [Compound 28] | – | EC50 [1, 4]: 5 µM; HTS binding score (T. cruzi CYP51; type II difference spectra scored 0-5, second highest rated hit compound cluster): 4 |
| O=S(=O)(Nc1ccc(Cc2ccncc2)cc1)c1ccc(Br)cc1 [Compound 142] | 4 | – |
| COc1ccc(NC(=O)Nc2ccc(Cc3ccncc3)cc2)cc1 [Compound 91] | 5 | – |
| O=C(CN(Cc1ccccc1)S(=O)(=O)c1ccccc1)NCc1ccncc1 [Compound 139] | 5 | – |
| N#Cc1nc(COc2ccccc2)oc1NCCCn1ccnc1 [Compound 81] | 4 | – |
| O=C(CNCc1cccnc1)Nc1ccc(OC(F)(F)F)cc1 [Compound 82] | 4 | – |
| O=C(/C(=C/c1ccc(F)cc1)n1cncn1)c1ccc(Cl)cc1Cl [Compound 116] | 4 | – |
| Cc1c(C(=O)N2CCCCC2c2cccnc2)sc2nc3n(c(=O)c12)CCCCC3 (stereo not drawn) [Compound 157] | 4 | – |
| COc1ccc(-c2nc(CSCC(=O)NCc3cccnc3)c(C)o2)cc1 [Compound 133] | 4 | – |
| Cc1[nH]c2ccccc2c1C(Nc1ccc(F)cc1)c1ccncc1 (stereo not drawn) [Compound 87] | 4 | – |
| O=C(NCc1ccncc1)C(Sc1ccccc1)c1ccccc1 (stereo not drawn) [Compound 93] | 4 | – |
| Cc1[nH]c2ccccc2c1C(Nc1cccc(F)c1)c1cccnc1 (stereo not drawn) [Compound 88] | 4 | – |
| CC(C)(C)Nc1c(-c2ccncc2)nc2ccc(Br)cn12 [Compound 105] | 4 | – |

| SMILES | HTS binding score (T. cruzi CYP51; [3]) | further results |
| --- | --- | --- |
| O=C(Nc1ccncc1)c1ccc(NS(=O)(=O)c2cccc(Cl)c2)cc1 [Compound 135] | 4 | – |
| CCOc1cc(S(=O)(=O)Nc2cccnc2)ccc1Cl [Compound 72] | 4 | – |
| Cc1ccc(Sc2c(C(=O)NCc3cccnc3)[nH]c3ccccc23)cc1 [Compound 123] | 4 | – |
| CC1=C(C(=O)Nc2cccnc2)C(c2cccc(O)c2)n2nc(SCc3ccccc3)nc2N1 (stereo not drawn) [Compound 179] | 4 | – |
| COc1ccc(-c2nc3n(n2)C(c2cccs2)C(C(=O)Nc2cccnc2)=C(C)N3)cc1 (stereo not drawn) [Compound 170] | 4 | – |
| CC1=C(C(=O)Nc2ccccc2)C(c2cccnc2)C(C#N)=C(SCC(=O)Nc2ccc(F)cc2)N1 (stereo not drawn) [Compound 184] | 5 | – |
| COc1ccc(-c2noc(CSc3nnc(-c4ccncc4)n3CC(C)C)n2)cc1OC [Compound 174] | 4 | – |
| Cc1cc(Cl)ccc1OCCCC(=O)Nc1cccnc1 [Compound 62] | 4 | – |
| COc1ccc(NC(=O)C2=C(C)Nc3nc(-c4ccccc4)nn3C2c2ccncc2)cc1 (stereo not drawn) [Compound 166] | 5 | – |
| COc1ccc(-c2[nH]nc3c2C(c2cccnc2)NC3=O)cc1 (stereo not drawn) [Compound 65] | 4 | – |
| O=C(CN(c1ccc(Cl)cc1Cl)S(=O)(=O)c1ccccc1)NCc1ccncc1 [Compound 173] | 4 | – |
| Cc1coc(NC(=O)c2sc3nc(-c4ccncc4)cc(C(F)(F)F)c3c2N)n1 [Compound 153] | 4 | – |
| CN1C(=O)c2[nH]nc(-c3ccc(F)cc3)c2C1c1cccnc1 (stereo not drawn) [Compound 67] | 5 | – |
| O=C(Cn1nc(-c2ccc(Cl)cc2)c2ccccc2c1=O)NCc1cccnc1 [Compound 145] | 4 | – |
| Cc1ccc(Cl)cc1-n1ncc2c(NCc3cccnc3)ncnc21 [Compound 112] | 4 | – |
| COc1cc2c(cc1OC)C(C(=O)N1CCC(Cc3ccccc3)CC1)C(c1cccnc1)N(C)C2=O (stereo not drawn) [Compound 185] | 4 | – |
| O=C(NCc1cccnc1)c1cc2c(=O)oc3ccccc3c2s1 [Compound 95] | 5 | – |
| Cc1ccc(NC(=O)C23CC4CC(C2)CC(n2cncn2)(C4)C3)c(C)c1 [Compound 111] | 5 | – |
| CC1=C(C(=O)Nc2cccnc2)C(c2ccc(Cl)cc2)n2nc(CCCO)nc2N1 (stereo not drawn) [Compound 160] | 4 | – |
| COc1cccc(C2C(C(=O)Nc3cccnc3)=C(C)Nc3nc(-c4cccs4)nn32)c1 (stereo not drawn) [Compound 169] | 4 | – |
| O=C(c1ccc(Cl)cc1Cl)C(c1cccnc1)C(O)C(Cl)(Cl)Cl (stereo not drawn) [Compound 151] | 5 | – |
| CC1Cc2cc(C(=O)C3=C(O)C(=O)N(Cc4cccnc4)C3c3cccs3)ccc2O1 (stereo not drawn) [Compound 164] | 4 | – |
| CCOC(=O)c1c(C)n(-c2ccc(C)cc2)c2ccc(OCC(O)Cn3ccnc3)cc12 (stereo not drawn) [Compound 165] | 4 | – |
| CC1(C)CC(=O)C2=C(C1)c1c(ccc3ccccc13)NC2c1cccnc1 (stereo not drawn) [Compound 114] | 5 | – |
| Cc1ccc2nc(NC(=O)C3CCN(S(=O)(=O)c4cccnc4)CC3)sc2c1 [Compound 152] | 4 | – |
